From patent US20170267750A1, “Method of Treating Ovarian and Renal Cancer Using Antibodies Against T Cell Immunoglobulin Domain and Mucin Domain 1 (TIM-1) Antigen” (Celldex Therapeutics, Inc., priority 2005, published 2017)
Counter-ions that a name gives are not always drawn.

Key:
[1] = tested on: IGROV1 ovarian carcinoma xenografts; assay: Human ovarian carcinoma xenograft model (IGROV1) in athymic mice; format: in vivo, athymic mice (CD-1 nu/nu females)
Protocol: An in vivo study was performed to assess the potency and therapeutic efficacy of the antibody-drug conjugate, CR014-vcMMAE, against an established human IGROV-1 ovarian xenograft in athymic mice.
Test Animals: Five- to 6-week old athymic mice (CD-1 nu/nu females), used for human tumor xenografts, were obtained from Charles Rivers Laboratories (Wilmington, Del.). Animals were housed in specific pathogen-free conditions, according to the guidelines of the Association for Assessment and Accreditation of Laboratory Animal Care International (AAALAC International). Test animals were provided pelleted food and water ad libitum and kept in a room with conditioned ventilation (HVAC), temperature (22°±2° C.), relative humidity (55%±15%), and photoperiod (12 hr). All studies were carried out with approved institutional animal care and use protocols. Contract Research Organizations. Experiments in vivo were conducted at Southern Research Institute (Birmingham, Ala.).
Human Ovarian Carcinoma Xenograft Model. The tumor inhibitory activity of the CR014-MMAE immunoconjugate was measured in an anti-tumor xenograft model using athymic mice, according to published methods (Geran R I, Greenberg N H, Macdonald M M, Schumacher A M and Abbott B J (1972) Protocols for screening chemical agents and natural products against animal tumors and other biological systems. Cancer Chemother Rep 3:1-104).
Briefly, test animals were implanted subcutaneously by trocar with small fragments of the IGROV1 carcinoma (30-60 mg) excised from athymic mouse tumor donors. […]
The IGROV1 ovarian carcinoma was derived from a person in 1985, and was obtained from the American Type Culture Collection. The effects of treatment were monitored by repetitive tumor measurements across 2 diameters with Vernier calipers; tumor size (in mg) was calculated using a standard formula, (W^2×L)/2, assuming a specific gravity of 1.0. Tumor size and body weights were assessed twice weekly. […]

[2] = tested on: ACHN cells; assay: Antibody mediated toxin killing clonogenic assay (saporin conjugated secondary antibody), ACHN; format: cell-based, human; details: EGFR mAb at 100 ng/mL with saporin secondary
Protocol: (§1) A clonogenic assay as described in the art was used to determine whether primary antibodies can induce cancer cell death when used in combination with a saporin toxin conjugated secondary antibody reagent. Kohls and Lappi, Biotechniques, 28(1):162-5 (2000).
(§2) ACHN and BT549 cells were plated onto flat bottom tissue culture plates at a density of 3000 cells per well. On day 2 or when cells reached ˜25% confluency, 100 ng/well secondary mAb-toxin (goat anti-human IgG-saporin; Advanced Targeting Systems; HUM-ZAP; cat. no. IT-22) was added. A positive control anti-EGFR antibody, mAb 2.7.2, mAb 2.59.2, or an isotype control mAb was then added to each well at the desired concentration (typically 1 to 500 ng/mL). On day 5, the cells were trypsinized, transferred to a 150 mm tissue culture dish, and incubated at 37° C. Plates were examined daily. On days 10-12, all plates were Giemsa stained and colonies on the plates were counted. Plating efficiency was determined by comparing the number of cells prior to transfer to 150 mm plates to the number of colonies that eventually formed.
(§3) The percent viability in antigen positive ACHN and antigen negative BT549 cell lines are presented in FIG. 4 and FIG. 5 respectively.

[3] = tested on: BT549 cells; assay: Antibody mediated toxin killing clonogenic assay (saporin conjugated secondary antibody), BT549; format: cell-based, human; details: EGFR mAb at 100 ng/mL with saporin secondary
Protocol: as §1, §2, §3

`CC(=O)O[C@H]1C(=O)[C@@]2(C)[C@H]([C@H](OC(=O)c3ccccc3)[C@]3(O)C[C@H](OC(=O)[C@H](O)[C@@H](NC(=O)c4ccccc4)c4ccccc4)C(C)=C1C3(C)C)[C@]1(OC(C)=O)CO[C@@H]1C[C@@H]2O` [Paclitaxel, paclitaxel] was tested, and the “re-growth of tumors during the observation period” value ([1]; 101 days after the commencement of treatment) was “not observed” and the anti-tumor effect ([1]; paclitaxel i.v., 24 mg/kg, q2d×4 (MTD)) was “significant tumor growth inhibition”.

`CC[C@]1(O)C[C@@H]2CN(CCc3c([nH]c4ccccc34)[C@@](C(=O)OC)(c3cc4c(cc3OC)N(C)[C@H]3[C@@](O)(C(=O)OC)[C@H](OC(C)=O)[C@]5(CC)C=CCN6CC[C@]43[C@@H]65)C2)C1` [Vinblastine, vinblastine sulfate] was tested, and the anti-tumor effect ([1]; vinblastine sulfate i.v., 1.7 mg/kg, q4d×4 (MTD)) was “very slight, but not significant, anti-tumor effect”.

`O=c1[nH]cc(F)c(=O)[nH]1` [5-FU, 5 Fluorouracil, reference compound] was tested, and the “killing in clonogenic assay (controls)” value [2] was “almost complete killing” and the “killing in clonogenic assay (controls)” value [3] was “almost complete killing”.
